Assays:
[1] = assay type: physicochemical
Experimental: The thermal stability of azithromycin at 40° C. is measured in 50 mM phosphate buffer adjusted to the pH values indicated in FIG. 2. FIG. 3 is a secondary plot of data derived from the azithromycin stability profiles in FIG. 2. […] 6-6.5. A formulation pH of 6.3 is preferred to minimize degradation of azithromycin in aqueous formulations including those that employ DuraSite®.

[2] = assay type: physicochemical; remark: listed apart in the source
Source text: Ophthalmic carrier(s) is used in a broad sense and includes any material or composition that can contain and release the azalide antibiotic and that is compatible with the eye. Typically the ophthalmically acceptable carrier is water or an aqueous solution or suspension, but also includes oils such as those used to make ointments and polymer matrices such as used in ocular inserts. […] The stabilized compositions of this invention advantageously employ the increased water solubility of the protonated form of the antibiotic that is compatible with the optimal pH range for azalide antibiotic stability. […] Accordingly, stabilized aqueous solution of an azalide antibiotic can be formed and used for topical application. Alternatively, aqueous compositions containing a portion of the azalide antibiotic in suspension may be employed for topical administration. Ointments and solid dosage forms can also be used as delivery compositions as are well known in the art. The concentration of azalide antibiotic present in the ophthalmic composition depends upon the dosage form, the release rate, the dosing regimen, and the location and type of infection. […]
The solubility of azithromycin is measured as a function of pH in 0.2 M citric acid buffer over the range of pH 5.91 to 9.0.

Structure (SMILES)	pH interval of maximum stability [1]	pH of stability maximum [1]	water solubility [2] [mg/mL]
CCC1OC(=O)C(C)C(OC2CC(C)(OC)C(O)C(C)O2)C(C)C(OC2OC(C)CC(N(C)C)C2O)C(C)(O)CC(C)CN(C)C(C)C(O)C1(C)O (stereo not drawn) [Azithromycin, N-methyl-11-aza-10-deoxo-10-dihydroerythromycin]	5.0-7.0	about 6.3	
CC[C@H]1OC(=O)[C@H](C)[C@@H](O[C@H]2C[C@@](C)(OC)[C@@H](O)[C@H](C)O2)[C@H](C)[C@@H](O[C@@H]2O[C@H](C)C[C@H](N(C)C)[C@H]2O)[C@](C)(O)C[C@@H](C)CN(C)[C@H](C)[C@@H](O)[C@]1(C)O.O.O [azithromycin dihydrate]			200 to 250

Reference: patent US7056893B2, “Topical treatment for prevention of ocular infections” (Insite Vision, Inc., priority 1999, dated 2006)
